# Assay results reported in EP0414533A1, “Use of iodopropargyl esters of alpha-amino acid derivatives as antimicrobial agents” (ROHM AND HAAS COMPANY, priority 1989, dated 1991).
# Counter-ions that a name gives are not always drawn. Like-named read-outs stand apart in the source and are kept apart here.
# Columns and labels:
# Aspergillus niger (ANIG) = assay: Minimum inhibitory concentration (MIC), broth two-fold serial dilution test; type: cell-based; conditions: Aspergillus niger, read-out: MIC (F) ANIG, M9G (minimal salts media with glucose); Table IIIc, iodopropargyl esters of peptides
# ALT = assay: In-vitro plant fungicide test; type: cell-based; design: inhibition of growth: concentration or dose not given beside the values; conditions: Table IVb, read-out: % Control at (ppm) indicated ALT
# Botrytis cinerea (BOC) = assay: In-vitro plant fungicide test; type: cell-based; conditions: Botrytis cinerea
# CER = assay: In-vitro plant fungicide test; type: cell-based; conditions: Table IVb, read-out: % Control at (ppm) indicated CER
# COL = assay: In-vitro plant fungicide test; type: cell-based; design: inhibition of growth: concentration or dose not given beside the values; conditions: Table IVb, read-out: % Control at (ppm) indicated COL
# Fusarium roseum (FUS) = assay: In-vitro plant fungicide test; type: cell-based; conditions: Fusarium sambucinum
# [1] = test system: Cochliobolus sativus (HEL); assay: In-vitro plant fungicide test; type: cell-based; conditions: Bipolaris sorokiniana
# MON = assay: In-vitro plant fungicide test; type: cell-based; conditions: Table IVb, read-out: % Control at (ppm) indicated MON
# [2] = test system: Phytophthora capsici (PHY); assay: In-vitro plant fungicide test; type: cell-based; conditions: Phytophthora capsici
# PSH = assay: In-vitro plant fungicide test; type: cell-based; conditions: Table IVb, read-out: % Control at (ppm) indicated PSH
# Pythium ultimum (PYU) = assay: In-vitro plant fungicide test; type: cell-based; conditions: Globisporangium ultimum
# Septoria nodorum (SEP) = assay: In-vitro plant fungicide test; type: cell-based; conditions: Parastagonospora nodorum
# UST = assay: In-vitro plant fungicide test; type: cell-based; design: inhibition of growth: concentration or dose not given beside the values; conditions: Table IVb, read-out: % Control at (ppm) indicated UST
# [3] = test system: Xanthomonas campestris (XAN); assay: In-vitro plant fungicide test; type: cell-based; design: inhibition of growth: concentration or dose not given beside the values; conditions: Xanthomonas campestris
# THREE FUNGI = assay: MIC test against three fungi in Mycophile Broth, pH 5.0, read after 8 days (Table VII); type: cell-based; conditions: 192 h
# [4] = test system: Pseudomonas fluorescens (PSFL); assay: Minimum inhibitory concentration (MIC), broth two-fold serial dilution test; conditions: Pseudomonas fluorescens, read-out: MIC (G-) PSFL, M9G (minimal salts media with glucose); Table IIIc, iodopropargyl esters of peptides
# Description: When the test is ready to be done, each vessel in the dilution series, except the first vessel, contains an equal volume of compound free broth. The first vessel contains twice the volume of broth with the starting concentration of test compound. One half of the broth from the first vessel is transferred to the second vessel. After being mixed, one half the resulting volume is removed from the second vessel and transferred to the third vessel. The entire cycle is repeated sufficiently to give a series of concentrations amounting to 500, 250, 125, 63, 31, 16, 8, and 4 ppm (or 100, 50, 25, 12.5, 6.2, 3.1, 1.6, and 0.8), respectively.
# Each vessel is then inoculated with a cell suspension of the appropriate test organism. Bacteria are grown in broth, fungi on agar slants for a time and at a temperature appropriate to the species being tested, and algae are a mixture of green algae and blue-green bacteria grown in a nutrient media. At the end of the growth period, in the case of bacteria, the broth is vortexed to disperse the cells.
# The vessels are then incubated at the appropriate temperature. After the incubation, the vessels are examined for growth/no growth.
# [5] = test system: Pseudomonas aerugenosa (PSAE); assay: as above; conditions: Pseudomonas, read-out: MIC (G-) PSAE, M9G (minimal salts media with glucose); Table IIIc, iodopropargyl esters of peptides
# Escherichia coli (ECOL) = assay: as above; conditions: Escherichia coli, read-out: MIC (G-) ECOL, M9G (minimal salts media with glucose); Table IIIc, iodopropargyl esters of peptides
# [6] = Table IVb, read-out: % Control at (ppm) indicated XAN
smiles,measurement,setting,value
"C[C@H](N)C(=O)N[C@@H](COCc1ccccc1)C(=O)OCC#CI [Compound 19, L-alanyl-O-benzyl-L-serine iodopropargyl ester trifluoroacetate]",MIC,Aspergillus niger (ANIG),< 0.8 µg/mL
same,inhibition of growth at 1.5 ppm,ALT; 1.5 ppm,0%
same,inhibition of growth at 3 ppm,ALT; 3 ppm,50%
same,inhibition of growth at 6 ppm,ALT; 6 ppm,75%
same,inhibition of growth at 25 ppm,ALT; 25 ppm,100%
same,inhibition of growth at 0.2 ppm,ALT; .2 ppm,0%
same,inhibition of growth at 0.4 ppm,ALT; .4 ppm,0%
same,inhibition of growth at 0.8 ppm,ALT; .8 ppm,0%
same,inhibition of growth,ALT,100%
same,inhibition of growth at 1.5 ppm,"Botrytis cinerea (BOC); 1.5 ppm, Table IVb, read-out: % Control at (ppm) indicated BOC",0%
same,inhibition of growth at 6 ppm,"Botrytis cinerea (BOC); 6 ppm, Table IVb, read-out: % Control at (ppm) indicated BOC",0%
same,inhibition of growth at 25 ppm,"Botrytis cinerea (BOC); Table IVa, *=Phytotoxic, read-out: % Control at 25 ppm BOC",0%
same,inhibition of growth at 25 ppm,"Botrytis cinerea (BOC); Table IVb, read-out: % Control at (ppm) indicated BOC",90%
same,inhibition of growth at 0.2 ppm,"Botrytis cinerea (BOC); .2 ppm, Table IVb, read-out: % Control at (ppm) indicated BOC",0%
same,inhibition of growth at 0.4 ppm,"Botrytis cinerea (BOC); .4 ppm, Table IVb, read-out: % Control at (ppm) indicated BOC",0%
same,inhibition of growth at 0.8 ppm,"Botrytis cinerea (BOC); .8 ppm, Table IVb, read-out: % Control at (ppm) indicated BOC",0%
same,inhibition of growth at 1.5 ppm,CER; 1.5 ppm,0%
same,inhibition of growth at 6 ppm,CER; 6 ppm,50%
same,inhibition of growth at 25 ppm,CER; 25 ppm,100%
same,inhibition of growth at 0.2 ppm,CER; .2 ppm,0%
same,inhibition of growth at 0.4 ppm,CER; .4 ppm,0%
same,inhibition of growth at 0.8 ppm,CER; .8 ppm,0%
same,inhibition of growth at 1.5 ppm,COL; 1.5 ppm,0%
same,inhibition of growth at 3 ppm,COL; 3 ppm,0%
same,inhibition of growth at 6 ppm,COL; 6 ppm,0%
same,inhibition of growth at 0.2 ppm,COL; .2 ppm,0%
same,inhibition of growth at 0.4 ppm,COL; .4 ppm,0%
same,inhibition of growth at 0.8 ppm,COL; .8 ppm,0%
same,inhibition of growth,COL,0%
same,inhibition of growth at 25 ppm,"Fusarium roseum (FUS); read-out: % Control at 25 ppm FUS, 25 ppm, Table IVa, *=Phytotoxic",100%
same,inhibition of growth at 1.5 ppm,"Fusarium roseum (FUS); read-out: % Control at (ppm) indicated FUS, 1.5 ppm, Table IVb",0%
same,inhibition of growth at 3 ppm,"Fusarium roseum (FUS); read-out: % Control at (ppm) indicated FUS, 3 ppm, Table IVb",0%
same,inhibition of growth at 6 ppm,"Fusarium roseum (FUS); read-out: % Control at (ppm) indicated FUS, 6 ppm, Table IVb",0%
same,inhibition of growth at 12 ppm,"Fusarium roseum (FUS); read-out: % Control at (ppm) indicated FUS, 12 ppm, Table IVb",0%
same,inhibition of growth at 25 ppm,"Fusarium roseum (FUS); read-out: % Control at (ppm) indicated FUS, 25 ppm, Table IVb",0%
same,inhibition of growth at 0.2 ppm,"Fusarium roseum (FUS); read-out: % Control at (ppm) indicated FUS, .2 ppm, Table IVb",0%
same,inhibition of growth at 0.4 ppm,"Fusarium roseum (FUS); read-out: % Control at (ppm) indicated FUS, .4 ppm, Table IVb",0%
same,inhibition of growth at 0.8 ppm,"Fusarium roseum (FUS); read-out: % Control at (ppm) indicated FUS, .8 ppm, Table IVb",0%
same,inhibition of growth at 1.5 ppm,"[1]; 1.5 ppm, Table IVb, read-out: % Control at (ppm) indicated HEL",0%
same,inhibition of growth at 6 ppm,"[1]; 6 ppm, Table IVb, read-out: % Control at (ppm) indicated HEL",0%
same,inhibition of growth at 25 ppm,"[1]; Table IVa, *=Phytotoxic, read-out: % Control at 25 ppm HEL",100%
same,inhibition of growth at 25 ppm,"[1]; Table IVb, read-out: % Control at (ppm) indicated HEL",100%
same,inhibition of growth at 0.2 ppm,"[1]; .2 ppm, Table IVb, read-out: % Control at (ppm) indicated HEL",0%
same,inhibition of growth at 0.4 ppm,"[1]; .4 ppm, Table IVb, read-out: % Control at (ppm) indicated HEL",0%
same,inhibition of growth at 0.8 ppm,"[1]; .8 ppm, Table IVb, read-out: % Control at (ppm) indicated HEL",0%
same,inhibition of growth at 1.5 ppm,MON; 1.5 ppm,50%
same,inhibition of growth at 6 ppm,MON; 6 ppm,100%
same,inhibition of growth at 25 ppm,MON; 25 ppm,100%
same,inhibition of growth at 0.2 ppm,MON; .2 ppm,0%
same,inhibition of growth at 0.4 ppm,MON; .4 ppm,0%
same,inhibition of growth at 0.8 ppm,MON; .8 ppm,0%
same,inhibition of growth at 1.5 ppm,"[2]; 1.5 ppm, Table IVb, read-out: % Control at (ppm) indicated PHY",0%
same,inhibition of growth at 6 ppm,"[2]; 6 ppm, Table IVb, read-out: % Control at (ppm) indicated PHY",0%
same,inhibition of growth at 25 ppm,"[2]; Table IVa, read-out: % Control at 25 ppm PHY",100%
same,inhibition of growth at 25 ppm,"[2]; Table IVb, read-out: % Control at (ppm) indicated PHY",100%
same,inhibition of growth at 0.2 ppm,"[2]; .2 ppm, Table IVb, read-out: % Control at (ppm) indicated PHY",0%
same,inhibition of growth at 0.4 ppm,"[2]; .4 ppm, Table IVb, read-out: % Control at (ppm) indicated PHY",0%
same,inhibition of growth at 0.8 ppm,"[2]; .8 ppm, Table IVb, read-out: % Control at (ppm) indicated PHY",0%
same,inhibition of growth at 1.5 ppm,PSH; 1.5 ppm,50%
same,inhibition of growth at 6 ppm,PSH; 6 ppm,100%
same,inhibition of growth at 0.2 ppm,PSH; .2 ppm,0%
same,inhibition of growth at 0.4 ppm,PSH; .4 ppm,0%
same,inhibition of growth at 0.8 ppm,PSH; .8 ppm,0%
same,inhibition of growth at 1.5 ppm,"Pythium ultimum (PYU); 1.5 ppm, Table IVb, read-out: % Control at (ppm) indicated PYU",0%
same,inhibition of growth at 6 ppm,"Pythium ultimum (PYU); 6 ppm, Table IVb, read-out: % Control at (ppm) indicated PYU",0%
same,inhibition of growth at 25 ppm,"Pythium ultimum (PYU); Table IVa, read-out: % Control at 25 ppm PYU",100%
same,inhibition of growth at 25 ppm,"Pythium ultimum (PYU); Table IVb, read-out: % Control at (ppm) indicated PYU",100%
same,inhibition of growth at 0.2 ppm,"Pythium ultimum (PYU); .2 ppm, Table IVb, read-out: % Control at (ppm) indicated PYU",0%
same,inhibition of growth at 0.4 ppm,"Pythium ultimum (PYU); .4 ppm, Table IVb, read-out: % Control at (ppm) indicated PYU",0%
same,inhibition of growth at 0.8 ppm,"Pythium ultimum (PYU); .8 ppm, Table IVb, read-out: % Control at (ppm) indicated PYU",0%
same,inhibition of growth at 1.5 ppm,"Septoria nodorum (SEP); 1.5 ppm, Table IVb, read-out: % Control at (ppm) indicated SEP",50%
same,inhibition of growth at 6 ppm,"Septoria nodorum (SEP); 6 ppm, Table IVb, read-out: % Control at (ppm) indicated SEP",100%
same,inhibition of growth at 25 ppm,"Septoria nodorum (SEP); Table IVa, read-out: % Control at 25 ppm SEP",100%
same,inhibition of growth at 25 ppm,"Septoria nodorum (SEP); Table IVb, read-out: % Control at (ppm) indicated SEP",100%
same,inhibition of growth at 0.2 ppm,"Septoria nodorum (SEP); .2 ppm, Table IVb, read-out: % Control at (ppm) indicated SEP",0%
same,inhibition of growth at 0.4 ppm,"Septoria nodorum (SEP); .4 ppm, Table IVb, read-out: % Control at (ppm) indicated SEP",0%
same,inhibition of growth at 0.8 ppm,"Septoria nodorum (SEP); .8 ppm, Table IVb, read-out: % Control at (ppm) indicated SEP",0%
same,inhibition of growth at 1.5 ppm,UST; 1.5 ppm,0%
same,inhibition of growth at 3 ppm,UST; 3 ppm,0%
same,inhibition of growth at 6 ppm,UST; 6 ppm,100%
same,inhibition of growth at 25 ppm,UST; 25 ppm,100%
same,inhibition of growth at 0.2 ppm,UST; .2 ppm,0%
same,inhibition of growth at 0.4 ppm,UST; .4 ppm,0%
same,inhibition of growth at 0.8 ppm,UST; .8 ppm,0%
same,inhibition of growth,UST,100%
same,inhibition of growth at 1.5 ppm,"[3]; 1.5 ppm, Table IVb, read-out: % Control at (ppm) indicated XAN",0%
same,inhibition of growth at 3 ppm,"[3]; 3 ppm, Table IVb, read-out: % Control at (ppm) indicated XAN",0%
same,inhibition of growth at 6 ppm,"[3]; 6 ppm, Table IVb, read-out: % Control at (ppm) indicated XAN",0%
same,inhibition of growth at 25 ppm,"[3]; Table IVa, read-out: % Control at 25 ppm XAN",0%
same,inhibition of growth at 25 ppm,[3]; [6],0%
same,inhibition of growth at 0.2 ppm,"[3]; .2 ppm, Table IVb, read-out: % Control at (ppm) indicated XAN",0%
same,inhibition of growth at 0.4 ppm,"[3]; .4 ppm, Table IVb, read-out: % Control at (ppm) indicated XAN",0%
same,inhibition of growth at 0.8 ppm,"[3]; .8 ppm, Table IVb, read-out: % Control at (ppm) indicated XAN",0%
same,inhibition of growth,[3]; [6],0%
same,MIC,"THREE FUNGI; Aspergillus niger, pH 5, read-out: MIC ANIG, Aspergillus niger, serial dilutions from 50 ppm, read after 8 days of incubation",50 µg/mL
same,MIC,"THREE FUNGI; Aureobasidium pullulans, pH 5, read-out: MIC APUL, Aureobasidium pullulans, serial dilutions from 50 ppm, read after 8 days of incubation",50 µg/mL
same,MIC,"THREE FUNGI; Gloeophyllum trabeum, pH 5, read-out: MIC GTRA, Gloeophyllum trabeum, serial dilutions from 50 ppm, read after 8 days of incubation",50 µg/mL
same,MIC,[4],50 µg/mL
same,MIC,[5],50 µg/mL
same,MIC,Escherichia coli (ECOL),100 µg/mL
